Where two headings read alike, the source gives them in different places.
How the values were obtained:
PDE3 = conditions: for IC25–IC75 interval PDE3: concentration needed to increase inhibition from 25% to 75%; for IC50: read-out: IC50 PDE3, 5 μM cAMP, 30 min; for Ki: read-out: Ki PDE3-inhibition, Cheng-Prusoff from IC50
Experimental: (§1) The assays were performed in triplicates at three different days. […] The reaction was started by adding either a solution containing 0.016 units/μg protein of PDE3 (Abcam, Cambridge United Kingdom), or 0.022 units/μg protein of PDE5 (Sigma-Aldrich, St. Louis, MO, United States), to the Eppendorf tubes. Parallels for cAMP-metabolism included PDE3 only and parallels for cGMP-metabolism included PDE5 only. Control samples were free of drug and was either with or without PDE3 or PDE5. This was done to assure that only the relevant PDE was responsible for breakdown of the cyclic nucleotide, as no other enzyme nor cellular material was added to the incubations. The incubation time was 30 min (see Table 2). Reaction was stopped by adding methanol to the tubes. Internal standard of cGMP/GMP or cAMP/AMP (Sigma-Aldrich, St. Louis, MO, United States, Germany and Toronto Research Chemicals Inc., Toronto, ON, Canada) were added to each sample. Five samples contained only known concentrations of cGMP/GMP or cAMP/AMP and served as calibrators. Samples were analyzed for cGMP/GMP and cAMP/AMP content, using MS.

PDE5 = PDE5 (Homo sapiens, UniProt O76074); conditions: concentration needed to increase inhibition from 25% to 75%
Experimental: as §1

cAMP-efflux (ABCC4) = target: T1, cAMP-efflux (ABCC4) (Homo sapiens, UniProt O15439); experiment: biochemical; format: biochemical; conditions: for Inhibition of cAMP-efflux: 1.00 nM to 1.00 mM; for Inhibition of cAMP-efflux / IC50: 60 min, IOV; for IC25–IC75 interval cAMP-efflux: concentration needed to increase inhibition from 25% to 75%; for IC50: 20 μM [3H]-cAMP; for Ki: Cheng-Prusoff from IC50
T1 construct: from tissue; host or cells: human erythrocyte membranes (inside-out vesicles), pooled donors
T1 sequence (O15439 1-1325): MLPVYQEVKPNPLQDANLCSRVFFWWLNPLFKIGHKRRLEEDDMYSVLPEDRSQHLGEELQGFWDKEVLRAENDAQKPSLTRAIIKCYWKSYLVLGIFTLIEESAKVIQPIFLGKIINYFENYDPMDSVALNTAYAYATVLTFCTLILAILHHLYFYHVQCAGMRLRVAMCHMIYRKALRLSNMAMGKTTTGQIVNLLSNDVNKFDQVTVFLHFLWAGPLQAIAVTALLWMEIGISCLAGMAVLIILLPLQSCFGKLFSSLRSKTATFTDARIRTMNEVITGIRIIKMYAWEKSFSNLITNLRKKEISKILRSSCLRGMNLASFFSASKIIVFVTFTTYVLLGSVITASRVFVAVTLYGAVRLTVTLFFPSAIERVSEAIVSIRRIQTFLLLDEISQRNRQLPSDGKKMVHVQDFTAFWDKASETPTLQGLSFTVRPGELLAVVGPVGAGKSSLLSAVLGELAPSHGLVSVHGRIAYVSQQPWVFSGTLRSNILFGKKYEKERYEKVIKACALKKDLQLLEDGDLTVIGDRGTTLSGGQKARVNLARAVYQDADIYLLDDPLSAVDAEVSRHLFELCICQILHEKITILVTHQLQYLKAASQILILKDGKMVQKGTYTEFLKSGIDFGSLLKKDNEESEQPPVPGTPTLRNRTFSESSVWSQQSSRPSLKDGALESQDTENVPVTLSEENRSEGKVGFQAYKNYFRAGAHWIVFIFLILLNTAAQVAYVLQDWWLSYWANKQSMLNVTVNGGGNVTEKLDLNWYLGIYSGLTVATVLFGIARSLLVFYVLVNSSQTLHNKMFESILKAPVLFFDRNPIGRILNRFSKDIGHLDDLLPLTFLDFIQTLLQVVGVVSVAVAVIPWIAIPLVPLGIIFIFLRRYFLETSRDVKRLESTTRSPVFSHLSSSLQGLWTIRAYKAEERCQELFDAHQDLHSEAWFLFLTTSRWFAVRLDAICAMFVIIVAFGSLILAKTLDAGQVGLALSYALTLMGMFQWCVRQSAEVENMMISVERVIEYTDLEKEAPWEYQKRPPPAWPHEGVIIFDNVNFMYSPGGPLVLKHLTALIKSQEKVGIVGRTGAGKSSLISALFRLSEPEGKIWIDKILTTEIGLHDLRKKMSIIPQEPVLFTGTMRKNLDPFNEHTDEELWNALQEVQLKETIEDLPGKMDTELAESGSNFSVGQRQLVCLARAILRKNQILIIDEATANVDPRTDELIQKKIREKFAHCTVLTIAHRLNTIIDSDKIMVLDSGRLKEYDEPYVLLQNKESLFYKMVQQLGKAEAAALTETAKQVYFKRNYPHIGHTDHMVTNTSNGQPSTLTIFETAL
Experimental: (§2) Cellular extrusion was determined using the inside-out vesicle (IOV) method where erythrocytes from healthy, human donors were sampled. […] The erythrocytes were separated from plasma by centrifugation and washed. […] The membrane vesiculation was initiated by adding […] buffer to the cell suspension. After centrifugation, the suspension was forced through a syringe needle to enhance homogenization of the membranes. IOVs were separated from right side out vesicles (ROV) and unsealed erythrocyte membranes (ghosts) by ultracentrifugation overnight using a density gradient. The uppermost band was collected, washed, and resuspended. […] Batches of IOVs used in the parallels were made eight times, including blood from a total of 35 healthy donors.
(§3) The incubation solutions also included radioactive labeled [^3H]-cGMP and [^3H]-cAMP (Perkin Elmer, Boston, MA, United States), at a concentration of, respectively, 2 μM and 20 μM. […] Incubation time of 60 min was chosen to ensure sufficient quality of the samples for each parallel (Table 2). The transport was stopped by adding ice cold buffer. The IOVs were then filtered through a nitrocellulose membrane (Bio-Rad Laboratories, Feldkirchen, Germany), and the membrane was dried. The dried membranes were later added scintillation fluid and radioactivity was measured using a Packard TopCount NXT (Packard, Downers Grove, IL, United States).
(§4) Experiments determined total ATP-dependent cellular efflux of cGMP or cAMP from IOVs.

[1] = ref Walker (1999); cited from earlier work
cGMP-efflux (ABCC5) = cGMP-efflux (ABCC5) (Homo sapiens, UniProt O15440); format: biochemical; conditions: for IC25–IC75 interval cGMP-efflux: concentration needed to increase inhibition from 25% to 75%
Experimental: as §2, §3, §4

cGMP-efflux (ABCC5), sequence (O15440 whole entry): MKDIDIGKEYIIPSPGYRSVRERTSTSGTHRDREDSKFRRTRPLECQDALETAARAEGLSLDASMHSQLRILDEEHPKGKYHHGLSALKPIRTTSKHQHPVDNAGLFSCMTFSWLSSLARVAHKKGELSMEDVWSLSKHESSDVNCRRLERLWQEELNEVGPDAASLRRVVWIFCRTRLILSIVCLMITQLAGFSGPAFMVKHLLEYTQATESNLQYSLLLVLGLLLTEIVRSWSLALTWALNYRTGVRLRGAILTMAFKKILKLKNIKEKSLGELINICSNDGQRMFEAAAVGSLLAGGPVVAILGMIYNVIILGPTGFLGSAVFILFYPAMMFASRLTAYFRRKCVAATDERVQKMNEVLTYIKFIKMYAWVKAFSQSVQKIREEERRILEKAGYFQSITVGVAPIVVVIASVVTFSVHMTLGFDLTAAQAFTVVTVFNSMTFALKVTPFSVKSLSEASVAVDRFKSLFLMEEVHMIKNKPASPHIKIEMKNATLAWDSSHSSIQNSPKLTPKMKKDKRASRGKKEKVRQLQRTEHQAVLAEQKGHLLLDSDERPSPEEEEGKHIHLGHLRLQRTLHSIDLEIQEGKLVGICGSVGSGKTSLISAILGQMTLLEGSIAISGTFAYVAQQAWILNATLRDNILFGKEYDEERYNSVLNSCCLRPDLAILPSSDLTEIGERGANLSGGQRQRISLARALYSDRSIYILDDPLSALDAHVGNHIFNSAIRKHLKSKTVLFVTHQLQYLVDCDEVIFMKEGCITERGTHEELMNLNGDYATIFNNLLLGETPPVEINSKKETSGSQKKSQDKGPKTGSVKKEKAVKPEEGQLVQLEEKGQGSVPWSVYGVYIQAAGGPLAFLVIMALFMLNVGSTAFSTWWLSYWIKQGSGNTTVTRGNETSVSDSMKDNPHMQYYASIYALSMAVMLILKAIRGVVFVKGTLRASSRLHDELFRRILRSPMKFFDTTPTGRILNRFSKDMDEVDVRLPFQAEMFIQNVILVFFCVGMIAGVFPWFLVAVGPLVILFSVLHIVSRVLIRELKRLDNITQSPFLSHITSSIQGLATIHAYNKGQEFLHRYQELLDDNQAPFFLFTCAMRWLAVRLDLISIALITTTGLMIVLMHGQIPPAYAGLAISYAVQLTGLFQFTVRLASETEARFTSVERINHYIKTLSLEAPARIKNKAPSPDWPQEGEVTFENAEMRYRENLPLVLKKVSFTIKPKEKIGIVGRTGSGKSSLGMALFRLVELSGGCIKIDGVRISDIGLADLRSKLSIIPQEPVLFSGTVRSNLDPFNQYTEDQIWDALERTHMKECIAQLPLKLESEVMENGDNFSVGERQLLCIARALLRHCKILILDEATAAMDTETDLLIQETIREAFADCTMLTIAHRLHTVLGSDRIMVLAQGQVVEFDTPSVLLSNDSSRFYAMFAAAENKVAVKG

## CCCc1nn(C)c2c(=O)[nH]c(-c3cc(S(=O)(=O)N4CCN(C)CC4)ccc3OCC)nc12 [Sildenafil]
PDE3; 20°C
  IC25–IC75 interval PDE3: […]
  IC50: […]
PDE3; 20°C, listed as sildenafil
  IC25–IC75 interval PDE3: […]
PDE3; 24°C
  IC25–IC75 interval PDE3: […]
  IC50: […]
PDE3; 28°C
  IC25–IC75 interval PDE3: […]
  IC50: […]
PDE3; 32°C
  IC25–IC75 interval PDE3: […]
  IC50: […]
PDE3; 34°C
  IC25–IC75 interval PDE3: […]
  IC50: […]
PDE3; 37°C
  IC25–IC75 interval PDE3: […]
  IC50: […]
PDE5; 20°C
  IC25–IC75 interval PDE5: 0.132 ± 0.048 µM
PDE5; 20°C, listed as sildenafil
  IC25–IC75 interval PDE5: 0.132 ± 0.048 µM
PDE5; 24°C
  IC25–IC75 interval PDE5: 0.098 ± 0.012 µM
PDE5; 24°C, listed as sildenafil
  IC25–IC75 interval PDE5: 0.098 ± 0.012 µM
PDE5; 28°C
  IC25–IC75 interval PDE5: 0.083 ± 0.008 µM
PDE5; 32°C
  IC25–IC75 interval PDE5: 0.060 ± 0.006 µM
PDE5; 34°C
  IC25–IC75 interval PDE5: 0.055 ± 0.004 µM
PDE5; 37°C
  IC25–IC75 interval PDE5: 0.038 ± 0.000 µM
cAMP-efflux (ABCC4); 20°C
  Inhibition of cAMP-efflux: neither of the drugs were able to inhibit cAMP-efflux
cAMP-efflux (ABCC4); 24°C
  Inhibition of cAMP-efflux: neither of the drugs were able to inhibit cAMP-efflux
cAMP-efflux (ABCC4); 28°C
  IC25–IC75 interval cAMP-efflux: 13.8 ± 3.85 µM
cAMP-efflux (ABCC4); 32°C
  IC25–IC75 interval cAMP-efflux: 20.0 ± 4.27 µM
cAMP-efflux (ABCC4); 34°C
  IC25–IC75 interval cAMP-efflux: 19.8 ± 1.82 µM
cAMP-efflux (ABCC4); 37°C
  IC25–IC75 interval cAMP-efflux: 27.1 ± 9.36 µM
[1]
  Protein binding: 94–96%
cGMP-efflux (ABCC5); 20°C
  IC25–IC75 interval cGMP-efflux: 19.2 ± 8.45 µM
cGMP-efflux (ABCC5); 24°C
  IC25–IC75 interval cGMP-efflux: 11.4 ± 4.73 µM
cGMP-efflux (ABCC5); 28°C
  IC25–IC75 interval cGMP-efflux: 12.0 ± 1.96 µM
cGMP-efflux (ABCC5); 32°C
  IC25–IC75 interval cGMP-efflux: 9.76 ± 3.99 µM
cGMP-efflux (ABCC5); 34°C
  IC25–IC75 interval cGMP-efflux: 13.5 ± 1.74 µM
cGMP-efflux (ABCC5); 37°C
  IC25–IC75 interval cGMP-efflux: 23.6 ± 9.08 µM

## CCCc1nc(C)c2c(=O)[nH]c(-c3cc(S(=O)(=O)N4CCN(CC)CC4)ccc3OCC)nn12 [Vardenafil]
PDE3; 20°C
  IC25–IC75 interval PDE3: 709 ± 105 µM
  IC50: 73.4 ± 26.3 µM
  Ki: 3.36 ± 1.21 µM
PDE3; 24°C
  IC25–IC75 interval PDE3: 148 ± 31.9 µM
  IC50: 55.5 ± 4.75 µM
  Ki: 2.54 ± 0.218 µM
PDE3; 28°C
  IC25–IC75 interval PDE3: 128 ± 35.9 µM
  IC50: 32.7 ± 11 µM
  Ki: 1.5 ± 0.505 µM
PDE3; 32°C
  IC25–IC75 interval PDE3: 107 ± 27.0 µM
  IC50: 40.5 ± 3.78 µM
  Ki: 1.85 ± 0.173 µM
PDE3; 34°C
  IC25–IC75 interval PDE3: 72.1 ± 3.24 µM
  IC50: 24.9 ± 5.73 µM
  Ki: 1.14 ± 0.263 µM
PDE3; 37°C
  IC25–IC75 interval PDE3: 61.0 ± 14.3 µM
  IC50: 16.5 ± 6.08 µM
  Ki: 0.757 ± 0.276 µM
PDE5; 20°C
  IC25–IC75 interval PDE5: 0.103 ± 0.027 µM
PDE5; 24°C
  IC25–IC75 interval PDE5: 0.074 ± 0.005 µM
PDE5; 28°C
  IC25–IC75 interval PDE5: 0.049 ± 0.016 µM
PDE5; 32°C
  IC25–IC75 interval PDE5: 0.062 ± 0.016 µM
PDE5; 34°C
  IC25–IC75 interval PDE5: 0.028 ± 0.012 µM
PDE5; 37°C
  IC25–IC75 interval PDE5: 0.059 ± 0.029 µM
cAMP-efflux (ABCC4); 20°C
  Inhibition of cAMP-efflux: neither of the drugs were able to inhibit cAMP-efflux
cAMP-efflux (ABCC4); 24°C
  Inhibition of cAMP-efflux: neither of the drugs were able to inhibit cAMP-efflux
cAMP-efflux (ABCC4); 28°C
  IC50: 9.63 ± 5.79 µM
  Ki: 5.84 ± 3.51 µM
  IC25–IC75 interval cAMP-efflux: 17.3 ± 6.59 µM
cAMP-efflux (ABCC4); 32°C
  IC50: 13 ± 1.69 µM
  Ki: 7.86 ± 1.02 µM
  IC25–IC75 interval cAMP-efflux: 27.3 ± 6.19 µM
cAMP-efflux (ABCC4); 34°C
  IC50: 5.82 ± 0.685 µM
  Ki: 3.53 ± 0.415 µM
  IC25–IC75 interval cAMP-efflux: 19.9 ± 0.967 µM
cAMP-efflux (ABCC4); 37°C
  IC50: 5.85 ± 0.51 µM
  Ki: 3.55 ± 0.311 µM
  IC25–IC75 interval cAMP-efflux: 30.9 ± 6.82 µM
cAMP-efflux (ABCC4); not told
  Linear regression equation, IC50 inhibition of cAMP-efflux vs temperature: y = 26.4 − 0.545x
cGMP-efflux (ABCC5); 20°C
  IC25–IC75 interval cGMP-efflux: 28.1 ± 14.6 µM
cGMP-efflux (ABCC5); 24°C
  IC25–IC75 interval cGMP-efflux: 13.0 ± 1.74 µM
cGMP-efflux (ABCC5); 28°C
  IC25–IC75 interval cGMP-efflux: 10.6 ± 2.75 µM
cGMP-efflux (ABCC5); 32°C
  IC25–IC75 interval cGMP-efflux: 18.0 ± 4.12 µM
cGMP-efflux (ABCC5); 34°C
  IC25–IC75 interval cGMP-efflux: 19.2 ± 3.16 µM
cGMP-efflux (ABCC5); 37°C
  IC25–IC75 interval cGMP-efflux: 12.6 ± 3.89 µM
cGMP-efflux (ABCC5); not told
  Linear regression equation, IC50 inhibition of cGMP-efflux vs temperature: y = 9.64 − 0.098x

Reference: publication PMC8361756, “Treatment of Cardiovascular Dysfunction With PDE5-Inhibitors – Temperature Dependent Effects on Transport and Metabolism of cAMP and cGMP” (Frontiers in Physiology, 2021)
